Values after ≈ are worked out from the molar mass of the structure shown. Values joined by “and” are separate entries in the source; they are usually repeats but may differ in a detail not shown here. Equal values may be shown once. Active and inactive are the calls of the source. The calls are words filed in the database; no cut-off is given here.
Legend:
[1] = tested on: Mycobacterium tuberculosis; assay: (§1) Antimycobacterial activity against isoniazid, rifampicin, ethambutol and pyrazinamide sensitive Mycobacterium tuberculosis H37Rv ATCC 25618 assessed as inhibition of bacterial growth incubated for 7 days by resazurin dye based colorimetric method analysis; format: functional; details: H37Rv ATCC 25618, 168 h, time 7 day
[2] = tested on: Mycobacterium tuberculosis; assay: Antimycobacterial activity against Mycobacterium tuberculosis H37Rv ATCC 25618 assessed as fractional inhibitory concentration incubated for 7 days in presence of 2-aminoheptadecan-1-ol by resazurin dye based two-dimensional micro dilution checkerboard assay; format: functional; details: time 7 day
[3] = tested on: Mycobacterium tuberculosis; assay: Antimycobacterial activity against Mycobacterium tuberculosis H37Rv ATCC 25618 incubated for 7 days by resazurin dye based two-dimensional micro dilution checkerboard assay in presence of 1-(benzyloxy)heptadecan-2-amine; format: functional; details: time 7 day
[4] = tested on: Mycobacterium tuberculosis; assay: Antimycobacterial activity against Mycobacterium tuberculosis H37Rv ATCC 25618 incubated for 7 days by resazurin dye based two-dimensional micro dilution checkerboard assay in presence of 1-((3,4,5-trimethoxybenzyl)oxy)heptadecan-2-amine; format: functional; details: time 7 day
[5] = tested on: Mycobacterium tuberculosis; assay: as §1, with “Potency index, ratio of ethambutol MIC to test compound MIC for antimycobacterial” for “Antimycobacterial”; format: functional; details: time 7 day
[6] = Cytotoxicity against African green monkey Vero cells assessed as reduction in cell population incubated for 48 hrs by MTT assay; format: toxicity, cell-based; details: chlorocebus sabaeus
[7] = Cytotoxicity against mouse J774.A1 cells assessed as reduction in cell population incubated for 48 hrs by MTT assay; format: toxicity, cell-based
[8] = Cytotoxicity against human HepG2 cells assessed as reduction in cell population incubated for 48 hrs by MTT assay; format: toxicity, cell-based
[9] = tested on: Mycolicibacterium smegmatis; assay: Antimycobacterial activity against Mycobacterium smegmatis ATCC607 incubated for 24 hrs by resazurin dye based broth microdilution method; format: functional
[10] = tested on: Staphylococcus aureus; assay: Antibacterial activity against Staphylococcus aureus ATCC 25923 incubated for 18 hrs by resazurin dye based broth microdilution method; format: functional
[11] = tested on: Klebsiella pneumoniae; assay: Antibacterial activity against Klebsiella pneumoniae ATCC 13883 incubated for 18 hrs by resazurin dye based broth microdilution method; format: functional
[12] = tested on: Mycolicibacterium smegmatis; assay: Antimycobacterial activity against Mycobacterium smegmatis ATCC607 assessed as reduction in bacterial viability at 19.5 uM incubated for 24 hrs by time kill assay relative to control; format: functional
[13] = tested on: Mycolicibacterium smegmatis; assay: Antimycobacterial activity against Mycobacterium smegmatis ATCC607 infected in mouse J774 cells assessed as reduction in intracellular bacterial count at 19.5 to 39 uM measured after 24 hrs; format: functional, organism-based; details: dose 19.5-39 µM

With NNC(=O)c1ccncc1 [ISONIAZID] the MIC [1] was 0.91 µM and 0.13 µg/mL, the FIC [2] was 0.5 and the FIC [3] was 0.5. It also gave an FIC [4] of 0.5.

With CCCCCCCCCCCCCCCCCC(CO)NCC (centres undefined) the MIC [1] was 16 µM (≈ 5.24 µg/mL), the Ratio [5] was 23 and the CC50 at 48 h [6] was 23.6 µM. It also gave a CC50 at 48 h [7] of 135 µM, a CC50 at 48 h [8] of 192 µM and an MIC [9] of 64 µM (≈ 21 µg/mL). The MIC [10] was 32 µM (≈ 10.5 µg/mL) and the MIC [11] was 512 µM (≈ 168 µg/mL).

CCCCCCCCCCCCCCCC(CNCCCC)NC(=O)OC(C)(C)C (centres undefined) gave an MIC [1] of 8 µM (≈ 3.41 µg/mL), a Ratio [5] of 45 and a CC50 at 48 h [6] of 20.3 µM. For the same molecule, the CC50 at 48 h [7] was 21.2 µM, the CC50 at 48 h [8] was 136 µM and the MIC [9] was 32 µM (≈ 13.7 µg/mL). For the same molecule, the MIC [10] was 16 µM (≈ 6.83 µg/mL) and the MIC [11] was > 512 µM.

For NCC[C@H](O)C(=O)N[C@@H]1C[C@H](N)[C@@H](O[C@H]2O[C@H](CN)[C@@H](O)[C@H](O)[C@H]2O)[C@H](O)[C@H]1O[C@H]1O[C@H](CO)[C@@H](O)[C@H](N)[C@H]1O [AMIKACIN], the MIC [1] was 0.1 µM and 0.08 µg/mL, the MIC [9] was 1 µM (≈ 0.586 µg/mL) and the FIC [2] was 0.063. It also gave an FIC [3] of 0.25 and an FIC [4] of 0.5.

Work on CCCCCCCCCCCCCCCCCC(CN)NC(=O)OC(C)(C)C (centres undefined) yielded an MIC [1] of 16 µM (≈ 6.38 µg/mL), a Ratio [5] of 23 and a CC50 at 48 h [6] of 17.7 µM. For the same molecule, the CC50 at 48 h [7] was 30.5 µM, the CC50 at 48 h [8] was 115 µM and the MIC [9] was 8 µM (≈ 3.19 µg/mL). The MIC [10] was 16 µM (≈ 6.38 µg/mL) and the MIC [11] was > 512 µM.

With CO[C@H]1/C=C/O[C@@]2(C)Oc3c(C)c(O)c4c(O)c(c(/C=N/N5CCN(C)CC5)c(O)c4c3C2=O)NC(=O)/C(C)=C\C=C\[C@H](C)[C@H](O)[C@@H](C)[C@@H](O)[C@@H](C)[C@H](OC(C)=O)[C@@H]1C [RIFAMPIN] the MIC [1] was 0.04 µM and 0.03 µg/mL, the MIC [9] was 19.5 µM (≈ 16 µg/mL) and the FIC [3] was 0.063. The FIC [4] was 0.25, the Activity [12] was 27% and the Activity [13] was “Active”.
